Patent publication US8410094B2, “Amide compounds, their pharmaceutical compositions, their preparation method and their uses” (Shanghai Institute of Materia Medica, Chinese Academy of …, priority 2008, dated 2013)

These molecules were tested against T1, CCR5 (Homo sapiens, UniProt P51681) (assay: Inhibition of CCR5: [35S]GTPγS binding assays (filtration, SPA-WGA) and calcium influx assay, 10 nM RANTES, CHO-CCR5). Details: class by inhibition at 30 nM or 300 nM.
T1 construct: expressed in transfected cells
Assay type: biochemical
Procedure: CCR5 belongs to G-Protein-Coupled Receptor (GPCR) family. The developing technology of GPCR-based drugs have been well-developed, among them, the experimental techniques such as ligand-receptor binding assay, GTPγS binding assay and Ca^2+ flux assay have been widely used in drug-screening related to chemokine receptors. The inhibitory activities of the compounds according to the present invention against CCR5 are measured by three methods, i.e., [^35S]GTPγS filter binding assay, SPA-WGA-based [^35S]GTPγS binding assay and calcium influx assay. At the same time, the antiviral activities in cell of the compounds according to the present invention are evaluated by using two kinds HIV-1 subtypes: H4DA5 cell model and PBMC system virus replication model.
A. [^35S]GTPγS Binding Assay
After binding with an agonist, CCR5 experiences a conformation change such that CCR5 interacts with G protein so as to active the G protein. G protein is a tripolymer composed of α-subunit and βγ-subunit. Since the ability of α-subunit binding to GTP depends on the interaction of CCR5 with the agonist, the ability of an agonist for activating CCR5 can be reflected by determining the amount of GTP binding to α-subunit. In a GTPγS binding assay, a ^35S-labeled GTP analogue GTPγS, which can bind with an activated α-subunit without being hydrolyzed, is used to replace GTP in order for eliminating the defect that the amount of GTP binding to G protein can not exactly reflect the activation of CCR5 due to the hydrolysis of GTO by GTPase and for convenience of detection. So, α-subunit binds with GDP when CCR5 is not activated, and after the activation of CCR5, α-subunit binds with GTPγS such that GTPγS irreversible binds to α-subunit. Therefore, the amount of [^35S]-GTPγS binding to α-subunit could reflect the level of CCR5 activated by an agonist. The ability of the agonist for activating CCR5 will decrease when an antagonist is added.
Such experiment has been referred to as GTPγS filtration assay in which [^35S]-GTPγS bound with the free G protein could be separated by membrane filtration.
Alternatively, SPA (Scintillation Proximity Assay) technique can be used to detect the [^35S]-GTPγS bound to G protein, which is called SPA-WGA-based [35S]GTPγS binding assay. The principle of SPA technique is as follows. Sub-atomic particles released during the decay of radioactive atoms, for example β-ray (electron), can excite microspheres at a sufficiently close distance to emit light so as to be detected by a Scintillation Counter. In an aqueous solution, most of the energy of these rays is absorbed by the solvent, and the traveling distance of these rays is limited.
The activation of G protein by CCR5 is determined by the following experiments.
CHO (Chinese hamster ovary cell) permanent cell line expressing CCR5 (CHO-CCR5) (a cell line constructed by Shanghai Targetdrug Ltd.) was lysed with a lysis buffer (5 mM Tris-HCl, pH 7.5, 5 mM EDTA and 5 mM EGTA) and then centrifugated at 15,000×g for 10 min to obtain cell membrane. After the cell membrane was resuspended in a reaction buffer (5 mM Tris-HCl, pH 7.5, 5 mM MgCl2, 1 mM EGTA, 100 mM NaCl), the protein concentration was determined using Bioford Protein Assay Kit manufactured by Bio-Rad Laboratories Inc. Subsequently, GTPγS binding assay was performed in the reaction buffer, wherein the reaction system was 100 μL containing 10 μg membrane protein, 40 μM GDP and 0.5 nM [^35S]-GTPγS (1200 Ci/mmol). After the compound to be tested (the compound was first dissolved in DMSO and then diluted in gradient with the reaction buffer according to the specific situation, wherein the final concentration of DMSO was 1% (v/v) in the whole reaction system) was added and shaken to mix homogeneously, the reaction tube was incubated at 30° C. for 1 hour. After the reaction finished, the tube was placed on ice, and the reaction mixture was diluted with PBS to quench the reaction and filtered under reduced pressure with a GF/C filter membrane. […]

T1 sequence (P51681 whole entry): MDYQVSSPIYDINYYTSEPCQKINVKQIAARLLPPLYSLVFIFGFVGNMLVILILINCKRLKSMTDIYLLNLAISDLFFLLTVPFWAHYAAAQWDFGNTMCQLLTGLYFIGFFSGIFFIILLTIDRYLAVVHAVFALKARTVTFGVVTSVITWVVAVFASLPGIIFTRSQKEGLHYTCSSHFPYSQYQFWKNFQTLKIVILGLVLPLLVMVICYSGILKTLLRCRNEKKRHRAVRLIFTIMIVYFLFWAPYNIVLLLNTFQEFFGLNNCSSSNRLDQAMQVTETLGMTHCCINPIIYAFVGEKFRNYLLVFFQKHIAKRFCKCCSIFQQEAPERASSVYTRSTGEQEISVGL

**Q.** With Cc1ccc(S(=O)(=O)NC2CC3CCC(C2)N3CCCN(C(=O)Nc2ccccc2)c2ccc(C)c(Cl)c2)cc1 (stereo not drawn) [Compound 15d] as the molecule, how does the “inhibition against CCR5 (class symbol in IC50 column)” value (shortened to “inhibition against CCR5”) read?
**A.** ++ (the compound at 300 nM has an inhibition against CCR5 of more thant 50% at 300 nM)

**Q.** Cc1ccc(S(=O)(=O)NC2CC3CCC(C2)N3CCCN(c2ccc(C)c(Cl)c2)S(=O)(=O)c2ccc(C)cc2)cc1 (stereo not drawn) [Compound 15e, N-(3-chloro-4-methylphenyl)-4-methyl-N-(3-(3-exo-(4-tolylsulfonamido)-8-azabicyclo[3.2.1]oct-8-yl)propyl)phenylsulfonamide] was tested. Which “inhibition against CCR5” value did it give?
**A.** ++ (the compound at 300 nM has an inhibition against CCR5 of more thant 50% at 300 nM)

**Q.** COc1ccc(NC(=O)NC2CC3CCC(C2)N3CCCN(C(=O)C2CCN(C(C)=O)CC2)c2ccc(C)c(Cl)c2)cc1 (stereo not drawn) [Compound 10a, 1-acetyl-N-(3-chloro-4-methylphenyl)-N-(3-(3-exo-(3-(4-methoxylphenyl)ureylene)-8-azabicyclo[3.2.1]oct-8-yl)propyl)-4-piperidinylcarboxamide] was tested. Which “inhibition against CCR5” value did it give?
**A.** ++ (the compound at 300 nM has an inhibition against CCR5 of more thant 50% at 300 nM)

Same assay, conditions: compound at 30 nM; 10 nM RANTES; read-out: inhibition against CCR5 @30 nM

**Q.** For CC(=O)N1CCC(C(=O)N(CCCN2C3CCC2CC(NC(=O)Nc2ccccc2)C3)c2ccc(C)c(Cl)c2)CC1 (stereo not drawn) [Compound 10c, 1-acetyl-N-(3-(3-(3-phenylureylene)-8-azabicyclo[3.2.1]oct-8-yl)propyl)-N-(3-chloro-4-methylphenyl)-4-piperidinylcarboxamide], which inhibition at 0.03 µM is on record?
**A.** 33.5%

**Q.** Which inhibition at 0.03 µM does the source give for Cc1ccc(S(=O)(=O)NC2CC3CCC(C2)N3CCCN(C(=O)C2CCCCC2)c2ccc(C)c(Cl)c2)cc1 (stereo not drawn) [Compound 15a, N-(3-chloro-4-methylphenyl)-N-(3-(3-exo-(4-tolylsulfonamido)-8-azabicyclo[3.2.1]oct-8-yl)propyl)cyclohexylcarboxamide] here?
**A.** 45.2%

Same assay, conditions: compound at 300 nM; 10 nM RANTES; read-out: inhibition against CCR5 @300 nM

**Q.** CC(=O)N1CCC(C(=O)N(CCCN2C3CCC2CC(NC(=O)Nc2ccccc2)C3)c2ccc(C)c(Cl)c2)CC1 (stereo not drawn) [Compound 10c, 1-acetyl-N-(3-(3-(3-phenylureylene)-8-azabicyclo[3.2.1]oct-8-yl)propyl)-N-(3-chloro-4-methylphenyl)-4-piperidinylcarboxamide] was tested. Which inhibition at 0.3 µM did it give?
**A.** 41.9%

**Q.** With Cc1ccc(S(=O)(=O)NC2CC3CCC(C2)N3CCCN(C(=O)C2CCCCC2)c2ccc(C)c(Cl)c2)cc1 (stereo not drawn) [Compound 15a, N-(3-chloro-4-methylphenyl)-N-(3-(3-exo-(4-tolylsulfonamido)-8-azabicyclo[3.2.1]oct-8-yl)propyl)cyclohexylcarboxamide] as the molecule, how does the inhibition at 0.3 µM read?
**A.** 100%

Same assay, conditions: inhibition of GTPγS binding induced by 10 nM RANTES, CHO-CCR5

**Q.** CC(=O)N1CCC(C(=O)N(CCCN2C3CCC2CC(NC(=O)C(O)c2ccccc2)C3)c2ccc(C)c(Cl)c2)CC1 (stereo not drawn) [Compound 7p, 1-acetyl-N-(3-chloro-4-methylphenyl)-N-(3-(3-exo-(2-hydroxyl-2-phenylacetamido)-8-azabicyclo[3.2.1]oct-8-yl)propyl)-4-piperidinylcarboxamide] was tested. Which IC50 did it give?
**A.** 0.0515 µM

**Q.** For COc1cc(CC(=O)N[C@@H]2C[C@H]3CC[C@@H](C2)N3CCCN(C(=O)C2CCN(C(C)=O)CC2)c2ccc(C)c(Cl)c2)cc(OC)c1OC [Compound 7r, 1-acetyl-N-(3-chloro-4-methylphenyl)-N-(3-(3-exo-(2-(3,4,5-trimethoxylphenyl)acetamido)-8-azabicyclo[3.2.1]oct-8-yl)propyl)-4-piperidinylcarboxamide], which IC50 is on record?
**A.** 0.0203 µM

**Q.** How did the IC50 turn out when CC(=O)N1CCC(C(=O)N(CCCN2[C@@H]3CC[C@H]2C[C@H](NC(=O)Cc2c[nH]c4ccccc24)C3)c2ccc(C)c(Cl)c2)CC1 [Compound 7q, N-(3-(3-exo-(2-(3-indolyl)acetamido)-8-azabicyclo[3.2.1]oct-8-yl)propyl)-1-acetyl-N-(3-chloro-4-methylphenyl)-4-piperidinylcarboxamide] was run?
**A.** 0.082 µM

**Q.** Which IC50 does the source give for CC(=O)N1CCC(C(=O)N(CCCN2[C@@H]3CC[C@H]2C[C@H](NC(=O)COc2ccc(Cl)cc2Cl)C3)c2ccc(C)c(Cl)c2)CC1 [Compound 7y, 1-acetyl-N-(3-chloro-4-methylphenyl)-N-(3-(3-exo-(2-(2,4-dichlorophenoxy)acetamido)-8-azabicyclo[3.2.1]oct-8-yl)propyl)-4-piperidinylcarboxamide] here?
**A.** 0.0246 µM

**Q.** CC(=O)N1CCC(C(=O)N(CCCN2[C@@H]3CC[C@H]2C[C@H](NC(=O)Cc2cccc4ccccc24)C3)c2ccc(C)c(Cl)c2)CC1 [Compound 7n, 1-acetyl-N-(3-chloro-4-methylphenyl)-N-(3-(3-exo-(2-(1-naphthyl)acetamido)-8-azabicyclo[3.2.1]oct-8-yl)propyl)-4-piperidinylcarboxamide] was tested. Which IC50 did it give?
**A.** 0.00475 µM

**Q.** How did the IC50 turn out when CC(=O)N1CCC(C(=O)N(CCCN2[C@@H]3CC[C@H]2C[C@H](NC(=O)COc2ccc(Cl)cc2)C3)c2ccc(C)c(Cl)c2)CC1 [Compound 7x, 1-acetyl-N-(3-chloro-4-methylphenyl)-N-(3-(3-exo-(2-p-chlorophenoxy)acetamido-8-azabicyclo[3.2.1]oct-8-yl)propyl)-4-piperidinylcarboxamide] was run?
**A.** 0.0273 µM

**Q.** CC(=O)N1CCC(C(=O)N(CCCN2[C@@H]3CC[C@H]2C[C@H](NC(=O)Cc2ccc([N+](=O)[O-])c4ccccc24)C3)c2ccc(C)c(Cl)c2)CC1 [Compound 7s, 1-acetyl-N-(3-chloro-4-methylphenyl)-N-(3-(3-exo-(2-(4-nitro-1-naphthyl)acetamido)-8-azabicyclo[3.2.1]oct-8-yl)propyl)-4-piperidinylcarboxamide] was tested. Which IC50 did it give?
**A.** 0.00334 µM

**Q.** With “1-acetyl-N-(3-chloro-4-methylphenyl)-N-(3-(3-exo-(2-(4-(pyrrolidine-1-sulfonyl)phenyl)acetamido)-8-azabicyclo[3.2.1]oct-8-yl)propyl)-4-piperidinylcarboxamide [Compound 7i]” as the molecule, how does the IC50 read?
**A.** 0.00297 µM

**Q.** How did the IC50 turn out when Cc1ccc(S(=O)(=O)N[C@@H]2C[C@H]3CC[C@@H](C2)N3CCCN(C(=O)C2CCN(S(C)(=O)=O)CC2)c2ccc(C)c(Cl)c2)cc1 [Compound 15b, N-(3-chloro-4-methylphenyl)-N-(3-(3-exo-(4-tolylsulfonamido)-8-azabicyclo[3.2.1]oct-8-yl)propyl)-1-(methylsulfonyl)-4-piperidinylcarboxamide] was run?
**A.** 0.00206 µM

**Q.** For CC(=O)N1CCC(C(=O)N(CCCN2[C@@H]3CC[C@H]2C[C@H](NC(=O)Cc2ccc4ccccc4c2)C3)c2ccc(C)c(Cl)c2)CC1 [Compound 7o, 1-acetyl-N-(3-chloro-4-methylphenyl)-N-(3-(3-exo-(2-(2-naphthyl)acetamido)-8-azabicyclo[3.2.1]-oct-8-yl)propyl)-4-piperidinylcarboxamide], which IC50 is on record?
**A.** 0.697 µM

**Q.** With CNS(=O)(=O)c1ccc(CC(=O)N[C@@H]2C[C@H]3CC[C@@H](C2)N3CCCN(C(=O)C2CCN(C(C)=O)CC2)c2ccc(C)c(Cl)c2)cc1 [Compound 7z, 1-acetyl-N-(3-chloro-4-methylphenyl)-N-(3-(3-exo-(2-(4-(N-methylsulphonyl)phenyl)acetamido)-8-azabicyclo[3.2.1]oct-8-yl)propyl)-4-piperidinylcarboxamide] as the molecule, how does the IC50 read?
**A.** 0.0173 µM

**Q.** Which IC50 does the source give for CC(=O)N1CCC(C(=O)N(CCCN2[C@@H]3CC[C@H]2C[C@H](NC(=O)Cc2ccc(S(C)(=O)=O)cc2)C3)c2ccc(C)c(Cl)c2)CC1 [Compound 7k, 1-acetyl-N-(3-chloro-4-methylphenyl)-N-(3-(3-exo-(2-(4-(methylsulphonyl)phenyl)acetamido)-8-azabicyclo[3.2.1]oct-8-yl)propyl)-4-piperidinylcarboxamide] here?
**A.** 0.0116 µM

**Q.** For CC(=O)N1CCC(C(=O)N(CCCN2[C@@H]3CC[C@H]2C[C@H](NS(=O)(=O)c2cccs2)C3)c2ccc(C)c(Cl)c2)CC1 [Compound 9f, 1-acetyl-N-(3-chloro-4-methylphenyl)-N-(3-(3-exo-(thienyl-2-sulfonylamido)-8-azabicyclo[3.2.1]oct-8-yl)propyl)-4-piperidinylcarboxamide], which IC50 is on record?
**A.** 0.00253 µM

**Q.** Which IC50 does the source give for CC(=O)N1CCC(C(=O)N(CCCN2[C@@H]3CC[C@H]2C[C@H](NS(=O)(=O)c2ccc([N+](=O)[O-])cc2)C3)c2ccc(C)c(Cl)c2)CC1 [Compound 9c, 1-acetyl-N-(3-chloro-4-methylphenyl)-N-(3-(3-exo-(4-nitrophenylsulfonylamido)-8-azabicyclo[3.2.1]oct-8-yl)propyl)-4-piperidinylcarboxamide] here?
**A.** 0.0033 µM
